# System: A. baumannii strain ATCC19606
# Assay: Minimum inhibitory concentration (MIC) determination, microbroth dilution (CLSI)
# Assay type: cell-based
# Conditions: Acinetobacter baumannii; A. baumannii ATCC19606; CAMHB; read after 20 hours; >=80% growth inhibition; read-out: ATCC19606 MIC
# Method in brief: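 After 20 h at 35±2 °C, MIC taken visually and by OD 600 nm as the lowest concentration giving ≥80% growth inhibition. Bacteria (~5×10^5 CFU/ml) were tested per CLSI microbroth dilution against twofold serial compound dilutions in cation-adjusted Mueller Hinton broth.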
row,MIC,Structure (SMILES)
1,1 mg/L,"CN1C(=O)[C@H](CCCCN)NC(=O)[C@H](CCCN)NCc2cccnc2Sc2c(Cl)cc(N3CCCC3)cc2CNC(=O)[C@@H]1Cc1c[nH]c2ccccc12 [Example 130, (11S,14S,17S)-14-(4-Amino-butyl)-11-(3-amino-propyl)-25-chloro-17-(1H-indol-3-ylmethyl)-16-methyl-23-pyrrolidin-1-yl-2-thia-4,10,13,16,19-pentaaza-tricyclo[19.4.0.0*3,8*]pentacosa-1(25),3(8),4,6,21,23-hexaene-12,15,18-trione]"
2,0.25 mg/L,"CN1C(=O)[C@H](CCCCN)NC(=O)[C@H](CCCN)NCc2cccnc2Sc2c(Cl)ccc(C(F)(F)F)c2CNC(=O)[C@@H]1Cc1c[nH]c2ccc(F)cc12 [Example 131, (11S,14S,17S)-14-(4-Amino-butyl)-11-(3-amino-propyl)-25-chloro-17-(5-fluoro-1H-indol-3-ylmethyl)-16-methyl-22-trifluoromethyl-2-thia-4,10,13,16,19-pentaaza-tricyclo[19.4.0.0*3,8*]pentacosa-1(25),3,5,7,21,23-hexaene-12,15,18-trione]"
3,2 mg/L,"COc1cc(-c2cc(Cl)c3c(c2)CNC(=O)[C@H](Cc2c[nH]c4ccccc24)N(C)C(=O)[C@H](CCCCN)NC(=O)[C@H](CCC(N)=O)NCc2cccnc2S3)ccn1 [Example 134, 3-[(11S,14S,17S)-14-(4-Amino-butyl)-25-chloro-17-(1H-indol-3-ylmethyl)-23-(2-methoxy-pyridin-4-yl)-16-methyl-12,15,18-trioxo-2-thia-4,10,13,16,19-pentaaza-tricyclo[19.4.0.0*3,8*]pentacosa-1 (25),3(8),4,6,21,23 exaen-11-yl]-propionamde]"
4,32 mg/L,"CN1C(=O)[C@H](CCCCN)NC(=O)[C@H](CCC(N)=O)NCc2cccnc2Sc2c(Cl)cc(N3CCOCC3)cc2CNC(=O)[C@@H]1Cc1c[nH]c2ccccc12 [Example 137, 3-[(11S,14S,17S)-14-(4-Amino-butyl)-25-chloro-17-(1H-indol-3-ylmethyl)-16-methyl-23-morpholin-4-yl-12,15,18-trioxo-2-thia-4,10,13,16,19-pentaaza-tricyclo[19.4.0.0*3,8*]pentacosa-1(25),3(8),4,6,21,23-hexaen-11-yl]-propionamide]"
5,0.5 mg/L,"CN1C(=O)[C@H](CCCCN)NC(=O)[C@H](CCCN)NCc2cccnc2Sc2c(Cl)cc(C3=CCOCC3)cc2CNC(=O)[C@@H]1Cc1c[nH]c2ccccc12 [Example 138, (11S,14S,17S)-14-(4-Amino-butyl)-11-(3-amino-propyl)-25-chloro-23-(3,6-dihydro-2H-pyran-4-yl)-17-(1H-indol-3-ylmethyl)-16-methyl-2-thia-4,10,13,16,19-pentaaza-tricyclo[19.4.0.0*3,8*]pentacosa-1(25),3(8),4,6,21,23-hexaene-12,15,18-trione]"
6,2 mg/L,"CN1C(=O)[C@H](CCCCN)NC(=O)[C@H](CCCNC(=O)OCc2ccccc2)NCc2cccnc2Sc2c(Cl)ccc(Cl)c2CNC(=O)[C@@H]1Cc1c[nH]c2ccccc12 [Example 139, {3-[(11S,14S,17S)-14-(4-Amino-butyl)-22,25-dichloro-17-(1H-indol-3-ylmethyl)-16-methyl-12,15,18-trioxo-2-thia-4,10,13,16,19-pentaaza-tricyclo[19.4.0.0*3,8*]pentacosa-1(25),3(8),4,6,21,23-hexaen-11-yl]-propyarbamic acid benzyl ester]"
7,1 mg/L,"CN1C(=O)[C@H](CCCCN)NC(=O)[C@H](CCCN)NCc2ccccc2Sc2c(Cl)cc(-c3ccn(C)n3)cc2CNC(=O)[C@@H]1Cc1c[nH]c2ccccc12 [Example 144, (12S,15S,18S)-15-(4-Amino-butyl)-18-(3-amino-propyl)-4-chloro-12-(1H-indol-3-ylmethyl)-13-methyl-6-(1-methyl-1H-pyrazol-3-yl)-2-thia-10,13,16,19-tetraaza-tricyclo[19.4.0.0*3,8*]pentacosa-1(25),3,5,7,21,23-hexaene-11,14,17-trione]"
8,4 mg/L,"Cc1cc(-c2cc(Cl)c3c(c2)CNC(=O)[C@H](Cc2c[nH]c4ccccc24)N(C)C(=O)[C@H](CCCCN)NC(=O)[C@H](CCC(N)=O)NCc2cccnc2S3)ccn1 [Example 145, 3-[(11S,14S,17S)-14-(4-Amino-butyl)-25-chloro-17-(1H-indol-3-ylmethyl)-16-methyl-23-(2-methyl-pyridin-4-yl)-12,15,18-trioxo-2-thia-4,10,13,16,19-pentaaza-tricyclo[19.4.0.0*3,8*]pentacosa-1(25),3(8),4,6,21,23-hexaen-1l-yl]-propionamide]"
9,1 mg/L,"CN1C(=O)[C@H](CCCCN)NC(=O)[C@H](CCCN)NCc2cccnc2Sc2c(Cl)cc(-c3cnccn3)cc2CNC(=O)[C@@H]1Cc1c[nH]c2ccccc12 [Example 146, (11S,14S,17S)-14-(4-Amino-butyl)-11-(3-amino-propyl)-25-chloro-17-(1H-indol-3-ylmethyl)-16-methyl-23-pyrazin-2-yl-2-thia-4,10,13,16,19-pentaaza-tricyclo[19.4.0.0*3,8*]pentacosa-1(25),3(8),4,6,21,23-hexaene-12,15,18-trione]"
10,0.12 mg/L,"CN1C(=O)[C@H](CCCCN)NC(=O)[C@H](CCCN)NCc2cccnc2Sc2c(Cl)ccc(N3CCOCC3)c2CNC(=O)[C@@H]1Cc1c[nH]c2ccccc12 [Example 147, (11S,14S,17S)-14-(4-Amino-butyl)-11-(3-amino-propyl)-25-chloro-17-(1H-indol-3-ylmethyl)-16-methyl-22-morpholin-4-yl-2-thia-4,10,13,16,19-pentaaza-tricyclo[19.4.0.0*3,8*]pentacosa-1(25),3(8),4,6,21,23-hexaene-12,15,18-trione]"
11,8 mg/L,"CN1C(=O)[C@H](CCCCN)NC(=O)[C@H](CCCN)NCc2cccnc2Sc2c(Cl)cc(-c3ccnnc3)cc2CNC(=O)[C@@H]1Cc1c[nH]c2ccccc12 [Example 148, (11S,14S,17S)-14-(4-Amino-butyl)-11-(3-amino-propyl)-25-chloro-17-(1H-indol-3-ylmethyl)-16-methyl-23-pyridazin-4-yl-2-thia-4,10,13,16,19-pentaaza-tricyclo[19.4.0.0*3,8*]pentacosa-1(25),3(8),4,6,21,23-hexaene-12,15,18-trione]"
12,1 mg/L,CN1C(=O)[C@H](CCCCN)NC(=O)[C@H](CCCN)NCc2cccnc2Sc2c(Cl)cc(-c3ccccc3)cc2CNC(=O)[C@@H]1Cc1c[nH]c2ccccc12 [Example 149]
13,1 mg/L,"CN1C(=O)[C@H](CCCCN)NC(=O)[C@H](CCCN)NCc2cccnc2Sc2c(Cl)cc(-c3ccccn3)cc2CNC(=O)[C@@H]1Cc1c[nH]c2ccccc12 [Example 150, (11S,14S,17S)-14-(4-Amino-butyl)-11-(3-amino-propyl)-25-chloro-17-(1H-indol-3-ylmethyl)-16-methyl-23-pyridin-2-yl-2-thia-4,10,13,16,19-pentaaza-tricyclo[19.4.0.0*3,8*]pentacosa-1(25),3(8),4,6,21,23-hexaene-12,15-18-trione]"
14,2 mg/L,"CN1C(=O)[C@H](CCCCN)NC(=O)[C@H](CCCN)NCc2ccccc2Sc2c(Cl)cc(-c3cn(C)cn3)cc2CNC(=O)[C@@H]1Cc1c[nH]c2ccccc12 [Example 154, (12S,15S,18S)-15-(4-Amino-butyl)-18-(3-amino-propyl)-4-chloro-12-(1H-indol-3-ylmethyl)-13-methyl-6-(1-methyl-1H-imidazol-4-yl)-2-thia-10,13,16,19-tetraaza-tricyclo[19.4.0.0*3,8*]pentacosa-1(25),3,5,7,21,23-hexaene-11,14,17-trione]"
15,1 mg/L,"CN1C(=O)[C@H](CCCCN)NC(=O)[C@H](CCCN)NCc2cnccc2Sc2c(Cl)cc(C(F)(F)F)cc2CNC(=O)[C@@H]1Cc1c[nH]c2ccccc12 [Example 156, (7S,10S,13S)— 13-((1H-Indol-3-yl)methyl)-10-(4-aminobutyl)-7-(3-aminopropyl)-20-chloro-12-methyl-18-(trifluoromethyl)-6,7,9,10,12,13,15,16-octahydrobenzo[b]pyrido[3,4-p][1,5,8,11,14]thiatetraazacycloheptadecine-8,11,14(5H)-trione]"
16,16 mg/L,"CN1C(=O)[C@H](CCCCN)NC(=O)[C@H](CCCN)NCc2cccnc2Sc2c(Cl)cncc2CNC(=O)[C@@H]1Cc1c[nH]c2ccccc12 [Example 157, (7S,10S,13S)— 13-((1H-Indol-3-yl)methyl)-10-(4-aminobutyl)-7-(3-aminopropyl)-20-chloro-12-methyl-6,7,9,10,12,13,15,16-octahydrodipyrido[2,3-b:3′,4′-p][1,5,8,11,14]thiatetraazacycloheptadecine-8,11,14(5H)-trione]"
17,4 mg/L,"CN1C(=O)[C@H](CCCN)NC(=O)[C@H](CCC(N)=O)NCc2cccnc2Sc2c(Cl)cc(Cl)cc2CNC(=O)[C@@H]1Cc1c[nH]c2ccccc12 [Example 160, 3-[(11S,14S,17S)-14-(3-Amino-propyl)-23,25-dichloro-17-(1H-indol-3-ylmethyl)-16-methyl-12,15,18-trioxo-2-thia-4,10,13,16,19-pentaaza-tricyclo[19.4.0.0*3,8*]pentacosa-1(25),3(8),4,6,21,23-hexaen-11-yl]-propionamide]"
18,0.5 mg/L,"CN1C(=O)[C@H](CCCCN)NC(=O)[C@H](CCCN)NCc2cccnc2Sc2c(Cl)cc(-c3ccnc(N4CCOCC4)c3)cc2CNC(=O)[C@@H]1Cc1c[nH]c2ccccc12 [Example 162, (11S,14S,17S)-14-(4-Amino-butyl)-11-(3-amino-propyl)-25-chloro-17-(1H-indol-3-ylmethyl)-16-methyl-23-(2-morpholin-4-yl-pyridin-4-yl)-2-thia-4,10,13,16,19-pentaaza-tricyclo[19.4.0.0*3,8*]pentacosa-1(25),3(8),4,6,21,23-hexaene-12,15,18-trione]"
19,4 mg/L,"CN1C(=O)[C@H](CCCCN)NC(=O)[C@H](CCC(N)=O)NCc2cccnc2Sc2c(Cl)cc(-c3ccccn3)cc2CNC(=O)[C@@H]1Cc1c[nH]c2ccccc12 [Example 163, 3-[(11S,14S,17S)-14-(4-Amino-butyl)-25-chloro-17-(1H-indol-3-ylmethyl)-16-methyl-12,15,18-trioxo-23-pyridin-2-yl-2-thia-4,10,13,16,19-pentaaza-tricyclo[19.4.0.0*3,8*]pentacosa-1(25),3(8),4,6,21,23-hexaen-1-yl]-propionamide]"

# — patent US10030047B2 (Hoffmann-La Roche Inc., priority 2015, dated 2018)
